Experiments:
Daoy cells = test: CXCL8-induced migration in Boyden chamber; assay type: cell-based, human; settings: 1 µM, 200 ng/mL CXCL8
Description: (§1) Figure 4 C29 reduces proliferation, migration, and invasion of naïve MB cells. (A) Proliferation of Daoy, ONS-76, HD-MB03, and D341Med wild-type cells after treatment with 1 μM C29 or the control (DMSO), n = 3. (B) Clonogenic assay on Daoy (n = 4), ONS-76 (n = 3) and HD -MB03 (n = 5) cells after treatment with control (DMSO) or C29 (1 μM or 2.5 μM). Scale = 500 μm. (C) Cell migration through the Boyden chamber of Daoy and ONS-76 cells specifically attracted by 200 ng/mL CXCL8. Results are expressed as percentage of control (DMSO) (n = 3). Scale = 1000 μm. (D) Spheroid invasion using 3D culture cell assays on Daoy (n = 4) and ONS-76 cells (n = 3) treated with control (DMSO) or C29 at a concentration of 1 μM on day 0, 1, and 2. Results are expressed as percentage of day 0, n = 4. Scale = 500 μm. Statistics were performed using Student t-test for 2 comparisons only or ANOVA test for multiple comparisons. * p < 0.05, ** p < 0.01, *** p < 0.001. […]
(§2) each month by using PlasmoTest Kit (#10L07‐MM, InvivoGen, Toulouse, France). Daoy and ONS‐76 belong to the Shh genetic subgroup, D341‐Med and HD‐MB03 to group 3. […]
(§3) (1, 2∙5, 5μM) for 48 hours. […]
(§4) Data were presented with the percentage of cell death after subtracting the percentage of untreated and unlabelled dead cells.
(§5) Migration in Boyden chambers
(§6) The cells were deprived of serum overnight. […] Cells were counted using ImageJ software (NIH). […]

ONS-76 cells = test: CXCL8-induced migration in Boyden chamber; assay type: cell-based, human; settings: ONS-76, 1 µM, 200 ng/mL CXCL8
Description: as §1, §2, §3, §4, §5, §6

HR1 cells = test: Clonogenic assay; assay type: cell-based, human
Description: (§7) Figure 8 C29 is efficient on radioresistant MB cell lines. (A) Cell death after 48 h of treatment with control (DMSO, CT) or C29 1, 2.5, or 5 µM on radiation-resistant cells (RR) and normal cells (N), n = 3. Statistics were performed using the one-way method ANOVA. * p < 0.05, ** p < 0.01, *** p < 0.001. For this figure, DR1 = D1, DR2 = D2, HR1 = H1, HR2 = H2, and C8D1A = C8. (B) Proliferation of DR1/DR2 (A) and HR1/HR2 (B) radio-resistant cells after 1 µM C29 treatment or control (DMSO), n = 3. (C) Clonogenic assay on DR1, DR2 (n = 3) and HR1, HR2 (n = 3) cells after treatment with control (DMSO) or C29 (1 µM or 2.5 µM). (D) Cell migration through the Boyden chamber of DR1 and DR2 cells specifically attracted by 200 ng/mL CXCL8. Cells were treated with control (DMSO) or C29 (1 and 2.5 µM). Results are expressed as percentage of control (n = 3). Scale = 1000 μm. Statistics were performed using Student t-test for 2 comparisons only or ANOVA test for multiple comparisons. * p < 0.05, ** p < 0.01, *** p < 0.001. […]
each month by using PlasmoTest Kit (#10L07‐MM, InvivoGen, Toulouse, France). […]
(§8) 150 Daoy/DR1/DR2/ ONS ‐ 76 and 300 HD ‐ MB03/HR1/HR2 cells were seeded in trip‐ licate in 6‐well plates in the presence or absence of treatment (1 or 2∙5μM MCK140 or DMSO as control). […] The number of clones was quantified using ImageJ software. […]

DR1 and DR2 cells = test: CXCL8-dependent migration in Boyden chamber; assay type: cell-based, human; settings: DR1 and DR2, 1 µM, 200 ng/mL CXCL8
Description: as §7, with “(D) Cell migration through the Boyden chamber of DR1 and DR2 cells specifically attracted by 200 ng/mL CXCL8. Cells were treated with control (DMSO) or C29 (1 and 2.5 µM).” left out, “3).” for “3). Scale = 1000 μm. Statistics were performed using Student t-test for 2 comparisons only or ANOVA test for multiple comparisons. * p < 0.05, ** p < 0.01, *** p < 0.001.”
1500 Daoy, ONS ‐76, HD ‐MB03 or D341 Med cells were sown in triplicate in plates with six wells and the cells were counted daily for 8 days using a Coulter counter (Ville‐ pinte). The relative number of cells (compared to day 1) was determined daily. […]
Y = Y0 * exp(k * X) (Y= Cell number at day X; Y0= Cell number at day 0 (graphically calculated); X= Day following cell plating (cells plated at X0=0); k= Exponential growth constant rate. Doubling times were compared.
as §8

Lipophilicity (log D) = assay type: physicochemical; settings: source not stated

SMILES: O=C(Nc1cccc(Cl)c1)Nc1nc2ccc([N+](=O)[O-])cc2s1 [C29, 1-(3-chlorophenyl)-3-(6-nitrobenzo[d]thiazol-2-yl) urea]
- CXCL8-induced migration (Daoy cells): blocked CXCL8-induced migration
- CXCL8-induced migration (ONS-76 cells): blocked CXCL8-induced migration
- Clone formation (HR1 cells; HR1, 1 µM): reduced the number of clones
- Clone formation (HR1 cells; HR1, 2.5 µM): extinguished them
- CXCL8-dependent migration (DR1 and DR2 cells): significantly inhibited
- logD (Lipophilicity (log D)): ~3

— publication PMC9738107, “Targeting of the ELR+CXCL/CXCR1/2 Pathway Is a Relevant Strategy for the Treatment of Paediatric Medulloblastomas” (Cells, 2022)
